Patent US8697694B2, “Substituted pyridine and pyrimidine derivatives and their use in treating viral infections” (priority 2008, dated 2014)

test system: HCV replicon cells; assay: Cell-based HCV replicon assay (replicon RNA level by real time PCR, Taqman); conditions: Hepatitis C virus, 72 h, HCV replicon cells, harvested on day 3, replicon RNA by real time PCR; calculated EC90 reported as range class; read-out: EC90 (μM) range
Procedure, shortened: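 HCV replicon cells treated 3 days with 10 serial 2-fold compound dilutions (top 25 μM to 1 μM; 0.5% DMSO, 10% FBS). Replicon RNA quantified by multiplex Taqman RT-PCR (NS5B amplicon, GAPDH control); EC50 and EC90 = concentrations giving ΔCT of 1 and 3.2 over baseline.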

`CCc1cc2cc(-c3c(Cl)nc(NCC4CC4)nc3N[C@@H]3C[C@H](CO)[C@@H](O)[C@H]3O)oc2cn1` [Example 503] and `CCc1cc2cc(-c3c(C)nc(NCC4CC4)nc3N[C@@H]3C[C@H](CO)[C@@H](O)[C@H]3O)oc2cn1` [Example 509] cannot be ordered by EC90: < 0.5 µM for the first, < 0.5 µM for the second.

`OC[C@H]1C[C@@H](Nc2nc(NCC3CC3)nc(Cl)c2-c2nc3ccccc3s2)[C@H](O)[C@@H]1O` [Example 504] and `Cc1nc(NCC2CC2)nc(N[C@@H]2C[C@H](CO)[C@@H](O)[C@H]2O)c1-c1nc2ccccc2s1` [Example 505] cannot be ordered by EC90: < 0.5 µM for the first, < 0.5 µM for the second.

`CCC(C)(C)Nc1nc(Cl)c(-c2nc3ccccc3s2)c(N[C@@H]2C[C@H](CO)[C@@H](O)[C@H]2O)n1` [Example 506] and `CCC(C)(C)Nc1nc(C)c(-c2nc3ccccc3s2)c(N[C@@H]2C[C@H](CO)[C@@H](O)[C@H]2O)n1` [Example 513] cannot be ordered by EC90: < 0.5 µM for the first, < 0.5 µM for the second.

First: CC(=O)N1CCC(Nc2nc(Cl)c(-c3nc4ccccc4s3)c(N[C@@H]3C[C@H](CO)[C@@H](O)[C@H]3O)n2)CC1 [Example 507]
Second: OC[C@H]1C[C@@H](Nc2nc(NC3CCNCC3)nc(Cl)c2-c2nc3ccccc3s2)[C@H](O)[C@@H]1O [Example 510]
The EC90 of the first is lower: < 0.5 µM for the first, > 5 µM for the second.

`CCc1cc2cc(-c3c(C)nc(NCCOC)nc3N[C@@H]3C[C@H](CO)[C@@H](O)[C@H]3O)oc2cn1` [Example 508] and `CCOCCNc1nc(C)c(-c2cc3cc(CC)ncc3o2)c(N[C@@H]2C[C@H](CO)[C@@H](O)[C@H]2O)n1` [Example 515] cannot be ordered by EC90: < 0.5 µM for the first, < 0.5 µM for the second.

`CCCCCNc1nc(Cl)c(-c2cc3cc(CC)ncc3o2)c(N[C@@H]2C[C@H](CO)[C@@H](O)[C@H]2O)n1` [Example 511] and `CCCCCNc1nc(C)c(-c2cc3cc(CC)ncc3o2)c(N[C@@H]2C[C@H](CO)[C@@H](O)[C@H]2O)n1` [Example 514] cannot be ordered by EC90: < 0.5 µM for the first, < 0.5 µM for the second.

`CCOCCNc1nc(Cl)c(-c2cc3cc(CC)ncc3o2)c(N[C@@H]2C[C@H](CO)[C@@H](O)[C@H]2O)n1` [Example 512] and `CCc1cc2cc(-c3c(Cl)nc(NCC(C)C)nc3N[C@@H]3C[C@H](CO)[C@@H](O)[C@H]3O)oc2cn1` [Example 518] cannot be ordered by EC90: < 0.5 µM for the first, < 0.5 µM for the second.

`CCc1cc2cc(-c3c(Cl)nc(NCC(F)(F)F)nc3N[C@@H]3C[C@H](CO)[C@@H](O)[C@H]3O)oc2cn1` [Example 516] and `CCc1cc2cc(-c3c(Cl)nc(NCCC(F)(F)F)nc3N[C@@H]3C[C@H](CO)[C@@H](O)[C@H]3O)oc2cn1` [Example 520] cannot be ordered by EC90: < 0.5 µM for the first, < 0.5 µM for the second.

`CCc1cc2cc(-c3c(C)nc(NCC(F)(F)F)nc3N[C@@H]3C[C@H](CO)[C@@H](O)[C@H]3O)oc2cn1` [Example 517] and `CCc1cc2cc(-c3c(C)nc(NCCC(F)(F)F)nc3N[C@@H]3C[C@H](CO)[C@@H](O)[C@H]3O)oc2cn1` [Example 521] cannot be ordered by EC90: < 0.5 µM for the first, < 0.5 µM for the second.

`CCc1cc2cc(-c3c(C)nc(NCC(C)C)nc3N[C@@H]3C[C@H](CO)[C@@H](O)[C@H]3O)oc2cn1` [Example 519] and `CCc1cc2cc(-c3c(C)nc(NCc4cc(C)on4)nc3N[C@@H]3C[C@H](CO)[C@@H](O)[C@H]3O)oc2cn1` [Example 703] cannot be ordered by EC90: < 0.5 µM for the first, < 0.5 µM for the second.

First: CN(C)c1nc(Cl)c(-c2cc3ccncc3o2)c(N[C@@H]2C[C@H](CO)[C@@H](O)[C@H]2O)n1 [Example 522]
Second: CCc1cc2cc(-c3c(C)nc(NCc4ccco4)nc3N[C@@H]3C[C@H](CO)[C@@H](O)[C@H]3O)oc2cn1 [Example 705]
The EC90 of the first is higher: 0.5 to 5 µM for the first, < 0.5 µM for the second.

`Cc1nc(NCC2CC2)nc(N[C@@H]2C[C@H](CO)[C@@H](O)[C@H]2O)c1-c1nc2cnccc2s1` [Example 523] and `Cc1nc(NCc2ncccn2)nc(N[C@@H]2C[C@H](CO)[C@@H](O)[C@H]2O)c1-c1nc2ccccc2s1` [Example 717] cannot be ordered by EC90: < 0.5 µM for the first, < 0.5 µM for the second.

`COc1cc(CNc2nc(C)c(-c3nc4ccccc4s3)c(N[C@@H]3C[C@H](CO)[C@@H](O)[C@H]3O)n2)cc(OC)c1` [Example 701] and `COc1ccc(CNc2nc(C)c(-c3nc4ccccc4s3)c(N[C@@H]3C[C@H](CO)[C@@H](O)[C@H]3O)n2)cc1OC` [Example 709] cannot be ordered by EC90: < 0.5 µM for the first, < 0.5 µM for the second.

`CCc1cc2cc(-c3c(C)nc(NCc4cc(C)on4)nc3N[C@@H]3C[C@H](CO)[C@H]4OC(C)(C)O[C@H]43)oc2cn1` [Example 702] and `CCc1cc2cc(-c3c(C)nc(NCc4ccco4)nc3N[C@@H]3C[C@H](CO)[C@H]4OC(C)(C)O[C@H]43)oc2cn1` [Example 704] cannot be ordered by EC90: < 0.5 µM for the first, < 0.5 µM for the second.

`Cc1csc(CNc2nc(C)c(-c3nc4ccccc4s3)c(N[C@@H]3C[C@H](CO)[C@@H](O)[C@H]3O)n2)n1` [Example 707] and `Cc1cc(C)cc(CNc2nc(C)c(-c3nc4ccccc4s3)c(N[C@@H]3C[C@H](CO)[C@@H](O)[C@H]3O)n2)c1` [Example 713] cannot be ordered by EC90: < 0.5 µM for the first, < 0.5 µM for the second.

`COc1ccc(CNc2nc(C)c(-c3nc4ccccc4s3)c(N[C@@H]3C[C@H](CO)[C@H]4OC(C)(C)O[C@H]43)n2)cc1OC` [Example 708] and `COc1cc(CNc2nc(C)c(-c3nc4ccccc4s3)c(N[C@@H]3C[C@H](CO)[C@H]4OC(C)(C)O[C@H]43)n2)cc(OC)c1OC` [Example 710] cannot be ordered by EC90: < 0.5 µM for the first, < 0.5 µM for the second.

`COc1cc(CNc2nc(C)c(-c3nc4ccccc4s3)c(N[C@@H]3C[C@H](CO)[C@@H](O)[C@H]3O)n2)cc(OC)c1OC` [Example 711] and `Cc1cc(C)cc(CNc2nc(C)c(-c3nc4ccccc4s3)c(N[C@@H]3C[C@H](CO)[C@H]4OC(C)(C)O[C@H]43)n2)c1` [Example 712] cannot be ordered by EC90: < 0.5 µM for the first, < 0.5 µM for the second.

First: COCc1cc2cc(-c3c(C)nc(NCC(C)(C)C)nc3N[C@@H]3C[C@H](CO)[C@H]4OC(C)(C)O[C@H]43)oc2cn1 [Example 714]
Second: COCc1cc2cc(-c3c(C)nc(NCC(C)(C)C)nc3N[C@@H]3C[C@H](CO)[C@@H](O)[C@H]3O)oc2cn1 [Example 715]
The EC90 of the first is higher: 0.5 to 5 µM for the first, < 0.5 µM for the second.

same assay, conditions: Hepatitis C virus, 72 h, HCV replicon cells, replicon RNA level by real time PCR (Taqman), harvested on day 3; calculated EC90 reported as range class; read-out: EC90 (μM) range

`CCOCCNc1nc(C)c(-c2nc3cnccc3s2)c(N[C@@H]2C[C@H](CO)[C@@H](O)[C@H]2O)n1` [Example 525] and `COCCNc1nc(C)c(-c2nc3cnccc3s2)c(N[C@@H]2C[C@H](CO)[C@@H](O)[C@H]2O)n1` [Example 526] cannot be ordered by EC90: < 0.5 µM for the first, < 0.5 µM for the second.

`CCc1cc2cc(-c3c(C)nc(NC)nc3N[C@@H]3C[C@H](CO)[C@@H](O)[C@H]3O)oc2cn1` [Example 527] and `CCOCCNc1nc(C)c(-c2nc3ccccc3o2)c(N[C@@H]2C[C@H](CO)[C@@H](O)[C@H]2O)n1` [Example 529] cannot be ordered by EC90: < 0.5 µM for the first, < 0.5 µM for the second.

First: Cc1nc(NCC2CC2)nc(N[C@@H]2C[C@H](CO)[C@@H](O)[C@H]2O)c1-c1nc2ccccc2o1 [Example 528]
Second: Cc1nc(NCC2CC2)nc(N[C@@H]2C[C@H](CO)[C@@H](O)[C@H]2O)c1-c1nc2ccccc2n1C [Example 530]
The EC90 of the first is lower: 0.5 to 5 µM for the first, > 5 µM for the second.

Going from `CCOCCNc1nc(C)c(-c2nc3ccccc3n2C)c(N[C@@H]2C[C@H](CO)[C@@H](O)[C@H]2O)n1` [Example 531] to `CCOCCNc1nc(C)c(-c2nc3c(C)nccc3s2)c(N[C@@H]2C[C@H](CO)[C@@H](O)[C@H]2O)n1` [Example 535], the EC90 falls from > 5 µM to < 0.5 µM.

`Cc1nc(NCC(F)(F)F)nc(N[C@@H]2C[C@H](CO)[C@@H](O)[C@H]2O)c1-c1nc2cnccc2s1` [Example 532] and `Cc1nc(NCC(C)(C)C)nc(N[C@@H]2C[C@H](CO)[C@@H](O)[C@H]2O)c1-c1nc2cnccc2s1` [Example 536] cannot be ordered by EC90: < 0.5 µM for the first, < 0.5 µM for the second.

First: Cc1nc(N(C)C)nc(N[C@@H]2C[C@H](CO)[C@@H](O)[C@H]2O)c1-c1nc2cnccc2s1 [Example 533]
Second: Cc1nc(NC2CC2)nc(N[C@@H]2C[C@H](CO)[C@@H](O)[C@H]2O)c1-c1nc2cnccc2s1 [Example 534]
The EC90 of the first is higher: > 5 µM for the first, < 0.5 µM for the second.

`COc1cc(CNc2nc(C)c(-c3nc4cnccc4s3)c(N[C@@H]3C[C@H](CO)[C@@H](O)[C@H]3O)n2)cc(OC)c1` [Example 537] and `Cc1nc(NCc2ccccc2)nc(N[C@@H]2C[C@H](CO)[C@@H](O)[C@H]2O)c1-c1nc2cnccc2s1` [Example 540] cannot be ordered by EC90: < 0.5 µM for the first, < 0.5 µM for the second.

`Cc1cc(CNc2nc(C)c(-c3nc4cnccc4s3)c(N[C@@H]3C[C@H](CO)[C@@H](O)[C@H]3O)n2)on1` [Example 538] and `Cc1ccc(CNc2nc(C)c(-c3nc4cnccc4s3)c(N[C@@H]3C[C@H](CO)[C@@H](O)[C@H]3O)n2)s1` [Example 539] cannot be ordered by EC90: < 0.5 µM for the first, < 0.5 µM for the second.

`Cc1nc(NCc2nccs2)nc(N[C@@H]2C[C@H](CO)[C@@H](O)[C@H]2O)c1-c1nc2cnccc2s1` [Example 541] and `Cc1nc(N[C@H](C)c2ccccc2)nc(N[C@@H]2C[C@H](CO)[C@@H](O)[C@H]2O)c1-c1nc2cnccc2s1` [Example 543] cannot be ordered by EC90: < 0.5 µM for the first, < 0.5 µM for the second.

Compared with `Cc1ccc([C@@H](C)Nc2nc(C)c(-c3nc4cnccc4s3)c(N[C@@H]3C[C@H](CO)[C@@H](O)[C@H]3O)n2)cc1` [Example 544], `COCCNc1nc(C)c(-c2nc3cc(OC(F)F)c(OC(F)F)cc3s2)c(N[C@@H]2C[C@H](CO)[C@@H](O)[C@H]2O)n1` [Example 1004] is higher in EC90: < 0.5 µM for the first, 0.5 to 5 µM for the second.

`CCOCCNc1nc(C)c(-c2nc3cc(OC(F)F)c(OC(F)F)cc3s2)c(N[C@@H]2C[C@H](CO)[C@H]3OC(C)(C)O[C@H]32)n1` [Example 1001] and `COCCNc1nc(C)c(-c2nc3cc(OC(F)F)c(OC(F)F)cc3s2)c(N[C@@H]2C[C@H](CO)[C@H]3OC(C)(C)O[C@H]32)n1` [Example 1003] cannot be ordered by EC90: > 5 µM for the first, > 5 µM for the second.

`CCOCCNc1nc(C)c(-c2nc3cc(OC(F)F)c(OC(F)F)cc3s2)c(N[C@@H]2C[C@H](CO)[C@@H](O)[C@H]2O)n1` [Example 1002] and `Cc1nc(NCC2CC2)nc(N[C@@H]2C[C@H](CO)[C@@H](O)[C@H]2O)c1-c1nc2cc(OC(F)F)c(OC(F)F)cc2s1` [Example 1006] fall in the same range of EC90: 0.5 to 5 µM for the first, 0.5 to 5 µM for the second.

In the case of `Cc1nc(NCC2CC2)nc(N[C@@H]2C[C@H](CO)[C@H]3OC(C)(C)O[C@H]32)c1-c1nc2cc(OC(F)F)c(OC(F)F)cc2s1` [Example 1005], the EC90 is reported as > 5 µM.
